According to patent US20210322507A1, “GENOTYPE-DIRECTED LOCAL DELIVERY OF TARGETED THERAPEUTICS” (Massachusetts Institute of Technology, priority 2017, published 2021):

Experiments:
[1] = given systemically; cited from earlier work
[2] = Pharmacokinetic analysis of GMX-1778 after oral gavage (plasma and brain, UPLC-ESI-MS); format: in vivo, SCID mice; conditions: 250 mg/kg oral gavage
Description: GMX-1778 was dissolved in 20% captisol (CyDex) and administered by oral gavage to 6-7 week old female SCID mice at a dose of 250 mg/kg. Vehicle treated animals received similar volume of 5% dextrose prepared in 20% captisol by oral gavage. GMX-1778 treated animals were sacrificed at 30 minutes, 2 hours, 6 hours and 24 hours following treatment. Blood was collected by cardiac puncture and centrifuged at 6000 g for 5 minutes. The brain was homogenized in 3 volumes of PBS with 5% bovine serum albumin (Sigma-Aldrich). GMX-1778 was then extracted into the organic phase by a modified protocol described previously^31. Briefly, 25 μL plasma or 100 μL brain homogenate was added to 10 μL FK-866 (250 ng/mL prepared in methanol). Then, 800 μL ethyl acetate was added and the sample was vortexed and mixed overnight. The sample was then centrifuged at 3000 rpm for 10 minutes and 600 μL supernatant was transferred to a new tube. The sample was dried overnight and reconstituted in 200 μL acetonitrile. Stock solutions of GMX-1778 and an internal standard FK-866 were prepared in acetonitrile at a concentration of 500 μg/mL. A10-point calibration curve ranging from 5 to 5000 ng/mL was prepared. Quality control samples were prepared by a similar procedure using an independent stock solution at three concentrations (25, 250, and 2500 ng/mL). For analysis, 2.5 μL sample was injected on the UPLC-ESI-MS system.
Ultra-performance LC (UPLC) separation was carried out on a Waters UPLC aligned with a Waters Xevo TQ-SMS mass spectrometer (Waters Ltd.). MassLynx 4.1 software was used for data acquisition and analysis. LC separation was performed on an Acquity UPLC High Strength Silica Trifunctional C18 (50 mm×2.1 mm; particle size, 1.8 μm) at 50° C. The mobile phase consisted of acetonitrile, 0.1% formic acid, 10 mM ammonium formate solution flowed at a rate of 0.6 mL/minute using a time and solvent gradient composition. The initial mobile phase composition (100%) was held for 1.0 minutes, and then changed to 20% over the next 0.25 minutes. […]

[3] = Systemic toxicity analysis of oral GMX-1778; format: in vivo, SCID mice
Description: Adult SCID female mice of 6-7 weeks were administered GMX-1778 daily for 5 days by oral gavage (250 mg/kg). Body weights were recorded prior to administration and at the end of the study. Blood samples were analyzed for complete blood count by HemaTrue (Heska Lab Systems) and chemistry panel by DriChem (Heska Lab Systems). Liver and heart were fixed in formalin and analyzed for histologic toxicity by hematoxylin and eosin (H&E) staining. Eyes were removed by enucleation and placed in Davidson's fixative for 24 hours prior to formalin and subsequently analyzed for toxicity on H&E slides.

Structure (SMILES)	Blood-brain barrier penetration / brain accumulation [1]	Detectability of drug in brain within 24 hours ([2]; 24 hours)	Maximum (peak) drug concentration in brain ([2]; SCID mice, at 2 hours)	Maximum (peak) drug concentration in plasma ([2]; SCID mice, at 2 hours)	Liver histology (H&E) ([3]; 250 mg/kg oral GMX-1778)	Hemoglobin (anemia) ([3]; 250 mg/kg oral daily for 5 days, control 9.2±0.5 g/dL)	Uremia (chemistry panel) ([3]; 250 mg/kg oral daily for 5 days, control 15±0.5 mg/dL)	Body weight after administration (weight loss) ([3]; 250 mg/kg oral daily for 5 days, control dextrose 21.8±0.6 g)
O=C(/C=C/c1cccnc1)NCCCCC1CCN(C(=O)c2ccccc2)CC1 [FK866]	does not measurably accumulate in the brain parenchyma							
N#CN=C(NCCCCCCOc1ccc(Cl)cc1)Nc1ccncc1 [GMX-1778]	partially blood-brain barrier penetrant	no longer detectable	3.0 ± 1.5 µM	18.0 ± 3.6 µM	eosinophilic cholangitis	6.7 ± 0.8 g/dL	20.5 ± 1.9 mg/dL	17.9 ± 1.1 g
